These results are taken from patent US4904819A, “Bicyclic sulfonamide derivatives and process therefor” (Shionogi & Co., Ltd., priority 1987, dated 1990).

Each structure is given as a SMILES string.

The subject of the first assay is platelet; smooth muscle of bronchi, and of coronary, cerebral and pulmonary arteries.
Experiment: not given
The settings on record: "it is said that"; prior art; cited from earlier work.
For the molecule `CCCCC[C@H](O)/C=C/[C@H]1O[C@H]2C[C@H](O2)[C@@H]1C/C=C\CCCC(=O)O` [thromboxane A2], the “concentration at which the strong action occurs” value was 10^-10 to 10^-11 M.

For a further assay, the system named is washed platelet. As to the kind of experiment: Inhibition of platelet aggregation caused by collagen (washed platelet, aggregometer). Format: cell-based, male rat (Sprague-Dowley). The note with it: 0.05 h; platelet aggregating agent: collagen, 4 μg/ml final; rat washed platelet, 37° C.; measured 3 minutes after adding agent; read-out: Inhibition of Platelet Aggregation [50% Inhibitory Concentration]. How it is done: From the abdominal artery of a male rat (Sprague-Dowley, 8 weeks old) was collected 10 ml of blood with a syringe containing 1.5 ml of ACD (85 mM sodium citrate, 70 mM citric acid, 110 mM glucose) and 20 μg of prostaglandin E1. The blood is placed in a plastic test tube, mixed by moderate turning and centrifuged for 10 minutes at 160×g to give platelet rich plasma (PRP). To the prepared PRP was added apyrase (25 μg/ml) and the mixture was layered on 40% bovine serum albumin. The resulting mixture is centrifuged at 1200×g for 25 minutes. The platelet pellet suspended in a small amount of a buffer (137 mM NaCl, 2.7 mM KCl, 1.0 mM MgCl2, 3.8 mM NaH2 PO4, 3.8 mM Hepes, 5.6 mM glucose, 0.035% bovine serum albumin, pH 7.35) was applied on 10 ml of Sepharose 2B column and eluted with the buffer to prepare a washed platelet.
The platelet aggregation reaction was measured by an aggregometer (NKK HEMA TRACER 1 MODEL PAT-6A·6M, Niko bioscience). In a measuring cuvette was placed 245 μl of the washed platelet of which platelet number was adjusted to 5×10^5 /μl and set in the aggregometer. The washed platelet was stirred (1000 rpm) at 37° C. and 3.8 μl of 0.1M of CaCl2 was added thereto. One minutes after, 0.5 μl of a solution of test compound (dimethylsulfoxide solution) was added and 2 minutes after, 1 μl of Collagen reagent Horm® [HORMON-CHEMIE Munchen GMBH, final concentrate 4 μg/ml) as a platelet aggregating agent was added. The change in light transmittance caused by platelet aggregation was recorded against time elasped.
50% aggregation inhibitory rate was calculated from the aggregation inhibitory rate (which was measured 3 minutes after adding a platelet aggregating agent). The light transmittance for the washed platelet and the buffer were setted at 0% and 100%, respectively.
For the molecule `CC1(C)[C@H]2C[C@H](C/C=C\CCCC(=O)O)[C@@H](NS(=O)(=O)c3ccc(Cl)cc3)[C@@H]1C2` [Compound 7b-d], the IC50 came out at 5.3 nM.
Regarding `Cc1ccc(S(=O)(=O)N[C@H]2[C@@H](C/C=C\CCCC(=O)O)C[C@H]3C[C@@H]2C3(C)C)cc1` [Compound 7a-b], the IC50 is 115 nM.
Regarding `CC1(C)[C@H]2C[C@H](C/C=C\CCCC(=O)O)[C@@H](NS(=O)(=O)c3ccccc3)[C@@H]1C2` [Compound 7b-a], the IC50 worked out at 0.7 nM.
Same read-out and setting: for `Cc1ccc(S(=O)(=O)N[C@@H]2[C@@H](C/C=C\CCCC(=O)O)C[C@H]3C[C@@H]2C3(C)C)cc1` [Compound 7b-b] the value was 1.7 nM; for `CC1(C)[C@H]2C[C@H](C/C=C\CCCC(=O)O)[C@@H](NS(=O)(=O)c3ccc4ccccc4c3)[C@@H]1C2` [Compound 7b-m], 4.3 nM; for `CC1(C)[C@H]2C[C@H](C/C=C\CCCC(=O)O)[C@@H](NS(=O)(=O)c3ccc([N+](=O)[O-])cc3)[C@@H]1C2` [Compound 7b-h], 26 nM.
For `CC1(C)C2CC(NCC(O)Cc3ccccc3)C(C/C=C\CCCC(=O)O)C1C2` (stereo not drawn) [ONO-11120, reference compound], the IC50 worked out at 115 nM.
As for `COc1ccc(S(=O)(=O)N[C@@H]2[C@@H](C/C=C\CCCC(=O)O)C[C@H]3C[C@@H]2C3(C)C)cc1` [Compound 7b-i], the IC50 worked out at 3.4 nM.
For the molecule `CC1(C)[C@H]2C[C@H](C/C=C\CCCC(=O)O)[C@@H](NS(=O)(=O)c3cccc(Cl)c3)[C@@H]1C2` [Compound 7b-f], the IC50 came out at 1.3 nM.
The same measure, in the same setting: for `CC1(C)[C@H]2C[C@H](C/C=C\CCCC(=O)O)[C@@H](NS(=O)(=O)CCCc3ccccc3)[C@@H]1C2` [Compound 7b-q] the value was 12 nM; for `CCc1ccc(S(=O)(=O)N[C@@H]2[C@@H](C/C=C\CCCC(=O)O)C[C@H]3C[C@@H]2C3(C)C)cc1` [Compound 7b-g], 9.9 nM; for `CC1(C)[C@H]2C[C@H](C/C=C\CCCC(=O)O)[C@@H](NS(=O)(=O)Cc3ccccc3)[C@@H]1C2` [Compound 7b-o], 240 nM.
Still for that read-out and setting: the result for `CC1(C)[C@H]2C[C@H](C/C=C/CCCC(=O)O)[C@@H](NS(=O)(=O)c3ccccc3)[C@@H]1C2` [Compound 10b-a] reads 1.4 nM.
Same read-out and setting: for `CC1(C)[C@H]2C[C@H](C/C=C\CCCC(=O)O)[C@@H](NS(=O)(=O)c3ccccc3Cl)[C@@H]1C2` [Compound 7b-e] the value was 6.4 nM.
Consider `CC1(C)[C@H]2C[C@H](C/C=C\CCCC(=O)O)[C@@H](NS(C)(=O)=O)[C@@H]1C2` [Compound 7b-n], for which the IC50 came to 480 nM.
Same read-out and setting: for `CC1(C)[C@H]2C[C@H](C/C=C\CCCC(=O)O)[C@@H](NS(=O)(=O)c3ccc(-c4ccccc4)cc3)[C@@H]1C2` [Compound 7b-l] the value was 9.9 nM; for `CC1(C)[C@H]2C[C@H](C/C=C\CCCC(=O)O)[C@H](NS(=O)(=O)c3ccccc3)[C@@H]1C2` [Compound 7a-a], 11 nM.
As for `CC1(C)[C@H]2C[C@H](C/C=C\CCCC(=O)O)[C@@H](NS(=O)(=O)CCc3ccccc3)[C@@H]1C2` [Compound 7b-p], the IC50 came out at 13 nM.
Same read-out and setting: for `CC1(C)[C@H]2C[C@@H](C/C=C\CCCC(=O)O)[C@@H](NS(=O)(=O)c3ccccc3)[C@@H]1C2` [Compound 7d-a] the value was 37 nM.
`CC1(C)[C@H]2C[C@H](C/C=C\CCCC(=O)O)[C@@H](NS(=O)(=O)c3ccc(O)cc3)[C@@H]1C2` [Compound 7b-k]: the IC50 is 1.8 nM.
